{
  "source": "paper PMC10844371",
  "about": "(Diabetologia, 2023)",
  "key": {"[1]": {"system": "isolated mouse pancreatic islets", "assay": "Insulin secretion in isolated mouse islets (RIA)", "format": "cell-based", "description": "(§1) Mouse islets were used acutely, except for studies with PTX, wherein islets were treated overnight with the toxin. Human islets were maintained in culture for up to 48 h in RPMI medium containing 10% (vol./vol.) FCS, 1% (vol./vol.) penicillin/streptomycin and 5 mmol/l glucose. Experiments were conducted as previously described. Islets were incubated in 0.3 ml EC1 or EC2 media (ESM Table 2) supplemented with glucose and other reagents as indicated.\n(§2) Insulin and somatostatin were determined by RIA (Millipore and Diasource ImmunoAssays, respectively) as described previously. In these experiments, rates of release are expressed as % of contents unless otherwise indicated."}, "human pancreatic islets": {"system": "human pancreatic islets", "assay": "Glucagon secretion in human islets (ELISA)", "format": "cell-based", "details": "human islets, 10 pmol/l, 1 mmol/l glucose", "description": "Human pancreatic islets were isolated (with ethical approval and clinical consent) as previously described. Islets from the pancreases of 18 healthy donors and five donors with type 2 diabetes were used (see electronic supplementary material [ESM] Table 1; ESM Human islets checklist).\nas §1, with “indicated. Glucagon was determined by ELISA (Mercodia).” for “indicated.”\n(§3) All data are reported, unless otherwise stated, as mean values ± SEM for the indicated number of experiments using islets from multiple mice. For hormone release studies, islets were isolated and pooled from 4–16 mice. These islets were then subdivided into groups of 12–20 size-matched islets. Each unique set of islets counted as an experiment with the experiments repeated on 2–4 days. Similarly, each unique group of human islets was treated as an experiment. […] In the Ca^2+ imaging and granule docking experiment, each cell represents an experiment making sure that cells from multiple donors/animals were used. For the in vivo experiments and the perfused pancreas, each mouse count represents an experiment. For two groupings, a t test was conducted. For multiple comparisons, one-way ANOVA was conducted. All statistical tests were performed using Graphpad Prism (version 9.1.0; graphpad.com). It was ascertained that the data were normally distributed."}, "[2]": {"system": "PKA activity in alpha cells", "assay": "PKA activity measurements (AKAR3) in alpha cells in intact islets", "format": "cell-based, mouse", "description": "PKA activity was measured using AKAR3 as previously described. The cells were continuously superfused at a rate of 60 μl/min with EC4 (ESM Table 2)."}, "[3]": {"system": "isolated mouse pancreatic islets", "assay": "Somatostatin secretion in isolated mouse islets (RIA)", "format": "cell-based", "details": "1 mmol/l glucose, groups of 20 islets", "description": "as §1, with “indicated. Glucagon was determined by ELISA (Mercodia).” for “indicated.”\nas §2"}, "[4]": {"system": "isolated mouse pancreatic islets", "format": "cell-based", "description": "Experiments were conducted as previously described. Islets were incubated in 0.3 ml EC1 or EC2 media (ESM Table 2) supplemented with glucose and other reagents as indicated.\nas §3, with “graphpad.com).” for “graphpad.com). It was ascertained that the data were normally distributed.”"}, "mouse alpha cells": {"system": "mouse alpha cells", "assay": "TIRF imaging of docked secretory granules in mouse alpha cells", "format": "cell-based", "description": "Cells were imaged using total internal reflection fluorescence (TIRF) microscopy (AxioObserver Z1 with a ×100/1.45 objective [Carl Zeiss] and a diode-pumped solid state laser at 491 nm). For these measurements, EC1 was used (ESM Table 2). Images from cells infected with preproglucagon promoter (PPPG)-neuropeptide Y (NPY)-enhanced green fluorescent protein (EGFP) virus were recorded using an electron-multiplying charge-coupled device camera (Photometrics Evolve) using ZEN blue. Single images of cells were acquired to measure the number of docked granules. Incoming and outgoing granules during visiting, docking and undocking were determined from multiple frame movies as described previously. Candidate docking or undocking events were found manually as granules that approached the TIRF field with an axial component and became laterally confined for at least two frames. We defined docking as granules that remained confined for at least 1 min. Visitors were those granules that remained for <1 min after appearing at the plasma membrane. Undocking was defined as slow movement of a previously docked granule away from its docking site. Granule density was calculated using a script that used the built-in ‘find maxima’ function in ImageJ (version 1.53c; http://rsbweb.nih.gov/ij) for spot detection."}, "P/Q-type Ca^2+ channels": {"system": "P/Q-type Ca^2+ channels", "assay": "[Ca2+]i imaging of depolarisation-evoked Ca2+ entry in alpha cells (Gcg-GCaMP6f islets)", "format": "cell-based, mouse", "details": "in the presence of GLP-1(9–36) 10 pmol/l; p=0.26", "description": "For live-cell cytoplasmic free Ca^2+ concentration ([Ca^2+]i) imaging experiments, Gcg-GCaMP6f islets were immobilised to a poly-L-lysine-coated coverslip fixed in a custom-built imaging chamber filled with EC3 (ESM Table 2). [Ca^2+]i was measured in islets from mice expressing GCaMP6f in alpha cells. [Ca^2+]i imaging experiments were then performed using an inverted LSM 510 confocal microscope (Zeiss) controlled with ZEN Black (Zeiss), using a ×40/1.3 oil immersion objective. Time-lapse images were collected every 0.98 s with a frame size of 256×256 pixels, with the bath solution (EC3) perfused at a rate of 0.4 ml/min and heated to 37°C. GCaMP6f was excited by an argon laser (488 nm) and emission was collected at 510 nm.\n[Ca^2+]i imaging videos were analysed using the Fiji imaging processing package. The mean fluorescence (F) of each region of interest was normalised to baseline signal (F0) and expressed as F/F0 before exporting into ClampFit (version 10.7; Molecular Devices, CA, USA), where baseline was corrected and AUC was calculated."}},
  "data": [
    {"molecule": "CC[C@H](C)[C@H](NC(=O)[C@H](Cc1ccccc1)NC(=O)[C@H](CCC(=O)O)NC(=O)[C@H](CCCCN)NC(=O)[C@H](C)NC(=O)[C@H](C)NC(=O)[C@H](CCC(N)=O)NC(=O)CNC(=O)[C@H](CCC(=O)O)NC(=O)[C@H](CC(C)C)NC(=O)[C@H](Cc1ccc(O)cc1)NC(=O)[C@H](CO)NC(=O)[C@H](CO)NC(=O)[C@@H](NC(=O)[C@H](CC(=O)O)NC(=O)[C@H](CO)NC(=O)[C@@H](NC(=O)[C@H](Cc1ccccc1)NC(=O)[C@@H](NC(=O)CNC(=O)[C@H](CCC(=O)O)NC(=O)[C@H](C)NC(=O)[C@@H](N)Cc1c[nH]cn1)[C@@H](C)O)[C@@H](C)O)C(C)C)C(=O)N[C@@H](C)C(=O)N[C@@H](Cc1c[nH]c2ccccc12)C(=O)N[C@@H](CC(C)C)C(=O)N[C@H](C(=O)N[C@@H](CCCCN)C(=O)NCC(=O)N[C@@H](CCCNC(=N)N)C(N)=O)C(C)C", "note": "[GLP-1(7–36)]", "values": [
      {"measurement": "insulinotropic effect in Glp1r−/− mouse islets", "setting": "[1]; Glp1r−/− islets", "result": "lost"},
      {"measurement": "concentrations at which stimulation of insulin secretion attained statistical significance", "setting": "[1]; mouse islets, 1 mmol/l glucose", "result": "≥ 100", "unit": "pmol/L"},
      {"measurement": "inhibition of glucagon secretion", "setting": "human pancreatic islets", "result": "~ 50%"},
      {"measurement": "effect on PKA activity in alpha cells", "setting": "[2]; 10 pmol/l", "result": "no inhibitory effect"},
      {"measurement": "effect on cAMP/PKA activity in alpha cells", "setting": "[2]; 10,000 pmol/l", "result": "increased cAMP/PKA activity"},
      {"measurement": "concentration at which stimulation of somatostatin secretion was already detectable", "setting": "[3]", "result": 10, "unit": "pmol/L"},
      {"measurement": "inhibitory effect on glucagon secretion in Glp1r−/− mouse islets", "setting": "[4]; 10 pmol/l, Glp1r−/− islets, 1 mmol/l glucose", "result": "persisted"},
      {"measurement": "inhibitory effect on glucagon secretion in Glp1r−/− islets after PTX", "setting": "[4]; 10 pmol/l, Glp1r−/− islets, PTX pretreatment", "result": "abolished"},
      {"measurement": "change of the inhibitory effect on glucagon secretion by exendin(9–39)", "setting": "[4]; 10 pmol/l, exendin(9–39) 1 μmol/l", "result": "reduced"},
      {"measurement": "glucagonostatic effect in the presence of exendin(9–39)", "setting": "[4]; 10 pmol/l, exendin(9–39) 1 μmol/l, 1 mmol/l glucose", "result": "retained their glucagonostatic effect"},
      {"measurement": "glucagonostatic effect in the presence of the PKA inhibitor 8-Br-Rp-cAMPS", "setting": "[4]; 8-Br-Rp-cAMPS 10 μmol/l, 1 mmol/l glucose", "result": "not affected"},
      {"measurement": "glucagonostatic effect remaining with exendin(9–39), in the presence of sitagliptin", "setting": "[4]; exendin(9–39) plus DPP-4 inhibitor sitagliptin", "result": "abolished"},
      {"measurement": "inhibition of glucagon secretion", "setting": "[4]; islets cultured overnight without PTX, 1 mmol/l glucose", "result": "~ 50%"},
      {"measurement": "inhibitory effect on glucagon secretion after PTX pretreatment", "setting": "[4]; overnight PTX 100 ng/ml, 1 mmol/l glucose", "result": "unaffected"},
      {"measurement": "IC50", "setting": "[4]; read-out: half-maximal inhibitory concentration (IC50) for inhibition of glucagon secretion, isolated mouse islets, 1 mmol/l glucose, groups of 12 islets from 4–6 mice, glucagon ELISA", "result": 2.5, "unit": "pM"}
    ]},
    {"molecule": "CCCOc1ccc(Br)cc1-c1cc(-c2ccc(Cl)cc2)[nH]c1-c1ccncc1", "note": "[L-168049]", "values": [
      {"measurement": "effect on the glucagonostatic effect of GLP-1(9–36)", "setting": "[4]; mouse islets, L-168049 100 nmol/l, GLP-1(9–36) 10 pmol/l", "result": "abolished"}
    ]},
    {"molecule": "CC1=NS(=O)(=O)c2cc(Cl)ccc2N1", "note": "[diazoxide]", "values": [
      {"measurement": "reduction of submembrane granule density", "setting": "mouse alpha cells; 200 μmol/l", "result": "~ 40%"}
    ]},
    {"molecule": "CC(C)NCC(O)c1ccc(O)c(O)c1", "note": "(stereo not drawn) [isoprenaline]", "values": [
      {"measurement": "stimulation of glucagon secretion", "setting": "[4]; mouse islets, 1 mmol/l glucose", "result": "> 2.2", "unit": "fold"}
    ]},
    {"molecule": "ω-agatoxin", "values": [
      {"measurement": "reduction of the number of docked granules", "setting": "mouse alpha cells; 200 nmol/l", "result": "to the same extent as GLP-1(9–36)"},
      {"measurement": "further change of Ca2+ entry on addition in the presence of GLP-1(9–36)", "setting": "P/Q-type Ca^2+ channels", "result": "−8±4", "unit": "%"},
      {"measurement": "effect on glucagon secretion", "setting": "[4]; 200 nmol/l, 1 mmol/l glucose", "result": "inhibited glucagon secretion nearly as strongly as GLP-1(9–36)"}
    ]}
  ]
}
